# Measured values as given in patent US20250084097A1, “MACROCYCLIC AMIDE COMPOUNDS AND APPLICATION THEREOF” (Medshine Discovery Inc., priority 2021, published 2025).
# Read-outs that look alike come from different tables or passages of the source.
# Legend:
# [1] = target: Ba/F3-FL-EGFR (del19-E746-A750/T790M/C797S) (Homo sapiens, UniProt P00533, DEL746-750/T790M/C797S, cells depend on it); assay: Cell proliferation inhibition, CellTiter-Glo; type: cell-based; conditions: 72 hours, read-out: Cell half-maximal inhibition concentration IC50 Ba/F3-FL-EGFR (del19-E746-A750/T790M/C797S)
# Procedure: (§1) AdenosineTri-Phosphate (ATP) is an energy carrier shared by various life activities in nature, and is the smallest unit of energy storage and transfer. The CellTiter-Glo™ living cell assay kit uses luciferase as a detector, and luciferase requires the participation of ATP in the process of luminescence. CellTiter-Glo™ reagent is added to a cell culture medium, and the luminescence value is measured. The light signal is directly proportional to the amount of ATP in the system, and ATP is positively correlated with the number of living cells. Therefore, cell proliferation can be detected by detecting ATP content with the CellTiter-Glo kit. In this assay, the cell lines were Ba/F3-FL-EGFR (L858R/T790M/C797S), Ba/F3-FL-EGFR (WT), Ba/F3-FL-EGFR (L858R), Ba/F3-FL-EGFR (del19-S752-I759), Ba/F3-FL-EGFR (del19-E746-A750/T790M/C797S), Ba/F3-FL-EGFR (L858R/T790M), Ba/F3-FL-EGFR (del19-E746-A750/T790M), Ba/F3-TEL-EGFR (L858R/C797S), Ba/F3-FL-EGFR (del19-E746-A750/C797S) stably transfected cell lines.
# (§2) The cell lines were cultured in an incubator at 37° C. and 5% CO2. The cells were periodically passaged, and cells in logarithmic growth phase were taken for plating.
# (§3) a) DMSO was used to prepare a 10 mM solution of the compound to be tested, and then the compound to be tested was diluted to 0.3 or 1 mM with DMSO.
# (§4) b) Preparation of 1000× compound storage plate (tube): DMSO was used to dilute by 3-fold gradient from the highest concentration to the lowest concentration, with a total of 9 concentrations.
# (§5) c) Preparation of 20× compound working solution: 49 μL of cell culture medium was added to a flat-bottomed 96-well transparent drug plate, and 1 μL of compound was pipetted from the 1000× compound storage plate to the cell culture medium of the 96-well transparent drug plate. 1 μL of DMSO was added to the vehicle control. After adding compound or DMSO, the well content was mixed to uniform by aspiration and expelling with pipette.
# (§6) a) Cells were stained with trypan blue and viable cells were counted. The cell viability rate was required to be above 90%.
# (§7) b) 95 μL of cell suspension (2000 cells/well) was added to each well of the compound detection cell plate, and culture medium without cells (containing 0.1% DMSO) was added to the Min control well.
# (§8) c) Dosing in the compound detection cell plate: 5 μL of 20× compound working solution was added to the cell culture plate. 5 μL of DMSO-cell culture mixture was added to the Max control. The final concentration of DMSO was 0.1%.
# (§9) d) The culture plate was incubated in an incubator at 37° C., 5% CO2 for 72 hours.
# (§10) The following steps were performed according to the instruction of Promega CellTiter-Glo luminescence cell viability detection kit (Promega-G7573). • a) The CellTiter-Glo buffer was thawed and allowed to stand to reach room temperature; • b) CellTiter-Glo substrate was allowed to stand to reach room temperature; • c) CellTiter-Glo buffer was added to CellTiter-Glo substrate in a bottle to dissolve the substrate to formulate CellTiter-Glo working solution; • d) The working solution was vortexed slowly for fully dissolution; • e) The cell culture plates were taken out and allowed to stand for 10 minutes to equilibrate to room temperature; • f) 50 μL (equal to half the volume of cell culture solution in each well) of Cell Titer-Glo working solution was added into each well. • g) The culture plates were shaken on an orbital shaker for 2 minutes to induce cell lysis; • h) The culture plates were left at room temperature for 10 minutes to stabilize the luminescence signal; • i) The luminous signal was detected on the PerkinElmer EnVision®2105 plate reader.
# (§11) By PerkinElmer EnVision®2105 reading, the corresponding […] value RLU for each well was yielded.
# (§12) Cell proliferation inhibition rate (Inhibition Rate) data were processed using the following formula:
# (§13) Inhibition Rate (Inh %)=100−(RLUDrug−RLUMin)/(RLUMax−RLUMin)*100%. […]
# [2] = target: Ba/F3-FL-EGFR (L858R/T790M) (Homo sapiens, UniProt P00533, T790M/L858R, cells depend on it); assay: Cell proliferation inhibition, CellTiter-Glo; type: cell-based
# Procedure: as §1, §2, §3, §4, §5, §6, §7, §8, §9, §10, §11, §12, §13
# [3] = 72 hours, read-out: Cell half-maximal inhibition concentration IC50 Ba/F3-FL-EGFR (L858R/T790M)
# Chain of Ba/F3-FL-EGFR (L858R/T790M) (P00533 whole entry T790M/L858R): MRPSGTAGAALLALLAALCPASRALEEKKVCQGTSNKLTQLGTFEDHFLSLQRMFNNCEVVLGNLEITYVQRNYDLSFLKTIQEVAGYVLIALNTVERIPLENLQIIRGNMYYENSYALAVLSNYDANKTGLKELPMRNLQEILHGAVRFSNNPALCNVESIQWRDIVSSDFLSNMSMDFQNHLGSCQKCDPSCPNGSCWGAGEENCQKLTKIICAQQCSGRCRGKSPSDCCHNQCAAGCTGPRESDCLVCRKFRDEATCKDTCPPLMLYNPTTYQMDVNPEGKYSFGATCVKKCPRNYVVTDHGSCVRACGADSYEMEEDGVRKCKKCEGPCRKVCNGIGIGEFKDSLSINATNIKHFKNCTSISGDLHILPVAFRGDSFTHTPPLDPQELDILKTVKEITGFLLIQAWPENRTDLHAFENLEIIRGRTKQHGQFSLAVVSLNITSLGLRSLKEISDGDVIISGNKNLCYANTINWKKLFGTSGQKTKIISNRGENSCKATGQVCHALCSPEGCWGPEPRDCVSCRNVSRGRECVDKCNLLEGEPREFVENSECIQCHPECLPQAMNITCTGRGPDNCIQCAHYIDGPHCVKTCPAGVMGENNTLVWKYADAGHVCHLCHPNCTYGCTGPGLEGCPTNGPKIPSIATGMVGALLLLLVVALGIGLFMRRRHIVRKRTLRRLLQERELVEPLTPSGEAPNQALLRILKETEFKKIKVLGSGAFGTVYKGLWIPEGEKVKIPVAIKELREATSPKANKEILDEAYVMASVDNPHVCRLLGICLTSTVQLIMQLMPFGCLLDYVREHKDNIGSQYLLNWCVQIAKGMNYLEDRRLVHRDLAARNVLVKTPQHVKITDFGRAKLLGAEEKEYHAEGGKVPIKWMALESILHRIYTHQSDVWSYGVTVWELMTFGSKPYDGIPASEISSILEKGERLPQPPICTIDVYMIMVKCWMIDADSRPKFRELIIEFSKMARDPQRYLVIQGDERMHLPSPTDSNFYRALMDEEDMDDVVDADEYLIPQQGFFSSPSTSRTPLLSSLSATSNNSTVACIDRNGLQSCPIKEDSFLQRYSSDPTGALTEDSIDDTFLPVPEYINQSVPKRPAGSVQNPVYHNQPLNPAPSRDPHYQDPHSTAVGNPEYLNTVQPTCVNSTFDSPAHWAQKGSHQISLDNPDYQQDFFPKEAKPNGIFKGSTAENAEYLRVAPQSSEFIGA
# Chain of Ba/F3-FL-EGFR (del19-E746-A750/T790M/C797S) (P00533 with tags, fused parts or gaps DEL746-750/T790M/C797S): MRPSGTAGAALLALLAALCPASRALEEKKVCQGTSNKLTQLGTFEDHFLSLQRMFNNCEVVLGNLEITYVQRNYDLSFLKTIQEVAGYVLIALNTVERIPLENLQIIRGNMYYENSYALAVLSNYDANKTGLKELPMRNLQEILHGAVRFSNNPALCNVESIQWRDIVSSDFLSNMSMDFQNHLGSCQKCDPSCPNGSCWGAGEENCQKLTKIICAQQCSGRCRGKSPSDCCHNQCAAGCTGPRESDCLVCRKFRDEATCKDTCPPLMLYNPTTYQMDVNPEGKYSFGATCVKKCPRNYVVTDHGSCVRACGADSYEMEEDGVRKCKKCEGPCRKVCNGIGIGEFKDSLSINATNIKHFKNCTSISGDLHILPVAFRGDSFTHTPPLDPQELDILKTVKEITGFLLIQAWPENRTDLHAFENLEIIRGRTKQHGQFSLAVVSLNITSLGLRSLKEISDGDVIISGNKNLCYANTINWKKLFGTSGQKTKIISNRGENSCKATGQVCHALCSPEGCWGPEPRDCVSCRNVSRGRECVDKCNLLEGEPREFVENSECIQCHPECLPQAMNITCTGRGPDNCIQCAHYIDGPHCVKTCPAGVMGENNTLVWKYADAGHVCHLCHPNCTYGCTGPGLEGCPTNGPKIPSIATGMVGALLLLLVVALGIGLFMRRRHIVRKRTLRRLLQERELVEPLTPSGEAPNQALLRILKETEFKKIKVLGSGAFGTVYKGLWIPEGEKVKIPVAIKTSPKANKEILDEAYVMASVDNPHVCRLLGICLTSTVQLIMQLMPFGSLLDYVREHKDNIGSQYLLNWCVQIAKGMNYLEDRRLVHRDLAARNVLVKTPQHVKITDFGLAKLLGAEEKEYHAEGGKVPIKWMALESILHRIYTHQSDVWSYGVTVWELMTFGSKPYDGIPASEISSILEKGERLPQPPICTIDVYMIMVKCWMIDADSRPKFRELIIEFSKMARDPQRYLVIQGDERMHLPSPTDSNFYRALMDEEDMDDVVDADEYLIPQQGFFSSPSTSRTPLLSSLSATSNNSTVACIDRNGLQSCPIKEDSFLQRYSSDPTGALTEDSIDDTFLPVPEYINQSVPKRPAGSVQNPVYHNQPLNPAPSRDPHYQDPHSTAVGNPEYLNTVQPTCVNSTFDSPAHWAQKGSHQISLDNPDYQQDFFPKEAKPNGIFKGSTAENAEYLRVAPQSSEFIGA
SMILES,GI50 [1] [nM],"GI50 [2, 3] [nM]","GI50 ([2]; read-out: Cell half-maximal inhibition concentration IC50 Ba/F3-FL-EGFR (L858R/T790M), 72 hours) [nM]"
"Cc1cc2cc(n1)-c1cnn(C)c1OC[C@H]1CC[C@H](C1)CN1/C(=N/C2=O)Nc2ccc(N=S(C)(C)=O)cc21 (single isomer, unassigned) [WX-027A]",1.2,14.3,–
Cc1cc2cc(n1)-c1cnn(C)c1OCCC[C@@H](C)CN1/C(=N/C2=O)Nc2ccc(N=S(C)(C)=O)cc21 [WX-006],0.6,12.9,–
Cc1cc2cc(n1)-c1cnn(C)c1OCCC[C@@H](C)CN1/C(=N/C2=O)Nc2ccc(N=S3(=O)CCCC3)cc21 [WX-010 (trifluoroacetate)],0.8,10.5,–
Cc1cc2cc(n1)-c1cnn(C)c1OCCC[C@@H](C)CN1/C(=N/C2=O)Nc2ccc(N=S3(=O)CCOCC3)cc21 [WX-013],–,–,12.1
Cc1cc2cc(n1)-c1cnn(C)c1OCCC[C@@H](C)CN1/C(=N/C2=O)Nc2ccc(N=S(C)(C)=O)c(Cl)c21 [WX-019],1.3,16.8,–
